Source: patent US8658664B2 (The Board of Regents of the University of Texas System, priority 2008, dated 2014)
Structures can show the parent of a compound that is named as a salt.

Columns and labels:
[1] = test system: pancreatic cancer cell line ASPC-1; assay: Orthotopic mouse model for pancreatic cancer metastasis; type: in vivo; conditions: ASPC-1-GFP injected into pancreas of nude mice; 20 mice per group; saline control 60%
Protocol: An orthotopic mouse model for pancreatic cancer metastasis was established to test the effect of Cyc-T on pancreatic cancer. Green flourescent protein (GFP) was expressed in pancreatic cancer cell line ASPC-1, and then injected into pancreas of nude mice.
The effect of cyc-T was tested in the mouse model for pancreatic cancer metastasis described supra.

hedgehog signaling = assay: Motor neuron differentiation and embryonic body formation from embryonic stem cells; type: cell-based
Source text: To test stem cell functions, motor neuron differentiation experiments were used. First embryonic stem cells were used to form stem cell sphere (embryonic bodies, EB). In the presence of retinoic acid (RA) and sonic hedgehog or SMO agonist purmorphamine (AG), several types of neurons can be differentiated. These neurons can be distinguished by distinct markers. Hb9 is regarded as a marker for motor neuron (FIG. 6A).

[2] = test system: basal cell carcinomas (BCC); assay: Skin tumor shrinkage in mouse BCC models, topical application; type: in vivo; conditions: topical application for 21 days; K14 Ptch1 knockout and K14 SmoM2-YFP mice
Protocol: Quantitative analysis was performed to calculate the percentage of tumor area in a given tissue area. Eight areas were used to measure the average value from each group, which was compared for the efficacy of the drugs.

Structure (SMILES): CC1=C2CC3C(CC=C4CC(O)CCC43C)C2CCC12OC1CC(C)CNC1C2C (stereo not shown) [Cyclopamine tartrate]
- frequency of tumor metastasis [1]: 32%
- inhibition of hedgehog signaling / motor neuron differentiation (Hb9 marker) (hedgehog signaling; embryonic bodies with retinoic acid and sonic hedgehog or purmorphamine, compared with KAAD-cyclopamine): as effective as KAAD-cyclopamine
- number and size of embryonic bodies (EBs) (hedgehog signaling; embryonic stem cell spheres, DAPI fluorescent microscopy): reduces the number and the size of EBs
- efficacy on hedgehog signaling-mediated skin tumors (percentage of tumor area in tissue area) [2]: very effective inhibitor for hedgehog signaling-mediated tumors
